Measured values published in patent US6211227A, “Tricyclic compounds” (Kyowa Hakko Kogyo Co., Ltd., priority 1997, dated 2001).
Like-named read-outs stand apart in the source and are kept apart here.

Columns and labels:
[1] = test system: detrusor muscle (isolated urinary bladder strips); test: Relaxation of rhythmic contraction induced by 15 mmol/l KCl in isolated urinary bladder strips (Test Example 2); set-up: species or system guinea pig (male albino Hartley); settings: Cavia porcellus; KCl 15 mmol/l; cumulative, contact time 15-30 minutes; 50% relaxant of maximum response
Excerpt: (§1) The activity of Compounds (I) as therapeutic agents for pollakiuria and urinary incontinence is described below. In the following Test Examples 1 and 2, IC50 value was defined as the concentration at which a test compound produces 50% relaxant of maximum response of detrusor muscle.
(§2) Male albino Hartley guinea pigs (350-550 g) were used as test animals. Each animal was exsanguinated to death under sodium pentobarbital anesthesia. The lower abdominal cavity was opened and its bladder was positioned. The connective tissue and the fat tissue around the bladder were removed, and the bladder was washed. After bilateral pelvic nerves on the surface of the abdominal side of the bladder were dissected, the bladder was taken out on the entrance of ureter. The bladder was washed with a Krebs-Henseleit buffer [composition (mM): NaCl 118, KCl 4.7, MgSO4 1.2, KH2 PO4 1.2, CaCl2 2.5, NaHCO3 25, and D-glucose 11.1], and then put on a gauze patch soaked in the buffer in a Petri dish. The dome and the trigone of the bladder were cut away. The back of the bladder was cut vertically in the middle with scissors, and the bladder was put flat on the gauze patch. The mucosa of the bladder was removed. The back of the bladder was cut vertically to get 6 strips which are ca. 2.0 mm wide and ca. 10 mm long.
(§3) Each strip was tied at one end to plastic rod and placed in a 20 ml organ bath containing a Krebs-Henseleit solution which was maintained at 37° C. and bubbled vigorously with a gas mixture of 5% CO2 and 95% O2. The pH of the solution was adjusted to about 7.4. The other end of the strip was tied via silk thread to a force displacement transducer (NIHON KODEN TB-611T). The transducer was connected to a polygraph (NIHON KODEN AP-621G), and the changes in tension were recorded on a recorder (YOKOGAWA type 3066). The polygraph was graduated by 0.5 g/cm.
Isolated urinary bladder strips were prepared in the same manner as in Test Example 1, and the tension of the preparation was measured. After the tension of the tissue was adjusted to be a steady state at 1 g, 15 mmol/l KCl was applied. After the rhythmic contraction was confirmed to appear by KCl, the tissue was washed. Then, 15 mmol/l KCl was applied again. After the rhythmic contraction induced by KCl became constant, a test compound was applied by the cumulative method (half-logarithmic increment). The contact time at each concentration was 15-30 minutes. The activity of the compound was expressed as the maximum relaxation rate (%) against the tension induced by the agonist.

[2] = test system: detrusor muscle (isolated urinary bladder strips); test: Relaxation of contraction induced by 50 mmol/l KCl in isolated urinary bladder strips (Test Example 1); set-up: species or system guinea pig (male albino Hartley); settings: Cavia porcellus, 0.5 h; KCl 50 mmol/l; cumulative, contact time 30 minutes; 50% relaxant of maximum response
Excerpt: as §1, §2, §3
After the tissue was incubated in the buffer for 15 minutes without preloading, tension was added thereto for about one hour. The preloading tension added was 1.5 g and it was relaxed to about 1 g. The strips were allowed to equilibrate until their contractions became constant and tension was adjusted to 1 g. After this equilibrium period, 50 mmol/l KCl (the whole content in the bath) was added, and the tissue was washed 10 minutes later. KCl was added to the tissue at intervals of 30 minutes, followed by washing 10 minutes later, and KCl was applied repeatedly until the developed tension induced by KCl becomes constant. When the tissue was confirmed to contract constantly by the application of KCl and relax to the steady state after washing, 50 mmol/l KCl was applied again. After the tissue reached the steady state and the base line was obtained, a test compound was applied by the cumulative method (half-logarithmic increment). The contact time at each concentration was 30 minutes. The activity of the compound was expressed as the maximum relaxation rate (%) against the tension induced by the agonist.

bladder = test: animal or person; settings: Rattus norvegicus, po, read-out: Contraction interval
Procedure: Male SD strain rats (200-300 g) were used as test animals. Each animal was anesthetized by intraperitoneally administering 50 mg/kg Nembutal. The hair on the abdomen, the thigh, and the back of the neck was shaved, followed by disinfection with 70% ethanol. The left femoral artery of the rat was exposed by incising the thigh for the insertion of a catheter into the femoral artery. A catheter filled with physiological saline containing heparin (1000 units/ml) was introduced approximately 2-3 cm into the artery so that its tip resided in the abdominal artery. The distal end of the catheter was exteriorized at the nape of the neck, sealed, and fixed on the skin tightly. A bladder catheter was implanted according to the method of Yaksh, et al., [Am. J. Physiol., vol.251, R1177-1185 (1986)]. The bladder was exposed through a midline abdominal incision. The bladder dome was given a small incision to make a small hole. A catheter filled with physiological saline was placed into the bladder and secured with a silk ligature. The other end of the catheter was exteriorized at the nape of the neck after being passed under the skin using a trocar. The exposed end of the catheter was sealed and fixed on the skin tightly. The abdominal muscles and skin were sutured, and the test animal was recovered from anesthesia.
The rat was weighed 24-48 hours after the operation. Each rat was placed in a Bollman cage (NATSUME SEISAKUSHO), and the test was done under partial restraint. The arterial catheter was connected to a pressure transducer (NIHON KODEN DX-300) used for the measurement of blood pressure. The bladder catheter was connected to a sylinge pump for physiological saline infusion and to a pressure transducer with PE50 tubing and a three-way stop-cock. Intravesical physiological saline infusion (0.05 ml/minute) was started and continued during the test. The changes of blood pressure, heart rate, and intravesical pressure were recorded with a polygraph (NIHON KODEN). The test animal was allowed to equilibration (for ca. 60-120 minutes) until its micturition pattern became constant. At this point, a basal value of each test parameter was recorded, and the rat was compulsorily given a test compound (in 0.3% carboxymethyl cellulose-physiological saline) at a dose of 1 mg/kg (body weight) by oral administration. […] As a control compound, cromakalim was used. The contraction interval, the systemic blood pressure, and the heart rate were measured for 5 hours after the administration of the compound at one-hour intervals and were expressed as the relative values based on the pre-administration values which were regarded as 100.

SMILES	IC50 [1]	IC50 [2]	response vs control in vivo at 1 mg/kg (bladder; 1 h)	response vs control in vivo at 10 mg/kg (bladder; 1 h)	response vs control in vivo at 1 mg/kg (bladder; 2 h)	response vs control in vivo at 10 mg/kg (bladder; 2 h)	response vs control in vivo at 1 mg/kg (bladder; 3 h)	response vs control in vivo at 10 mg/kg (bladder; 3 h)	response vs control in vivo at 1 mg/kg (bladder; 4 h)	response vs control in vivo at 10 mg/kg (bladder; 4 h)	response vs control in vivo at 1 mg/kg (bladder; 5 h)	response vs control in vivo at 10 mg/kg (bladder; 5 h)
CC(O)(C(=O)Nc1cccc2c1C(=O)c1sccc1CS2(=O)=O)C(F)(F)F (centres unmarked) [Compound 1-1, 5,5-Dioxo-9-(3,3,3-trifluoro-2-hydroxy-2-methylpropanoylamino)-4,10-dihydrothieno[3,2-c][1]benzothiepin-10-one]	2.6 µM	> 10 µM	138 ± 15%	124 ± 4%	166 ± 16%	139 ± 9%	170 ± 6%	154 ± 14%	181 ± 16%	176 ± 13%	203 ± 21%	190 ± 15%
CC(O)(C(=O)Nc1ccc2c(c1)S(=O)(=O)Cc1ccccc1C2=O)C(F)(F)F (centres unmarked) [Compound 1-4, 5,5-Dioxo-3-(3,3,3-trifluoro-2-hydroxy-2-methylpropanoylamino)-6,11-dihydrodibenzo[b,e]thiepin-11-one]	3.2 µM	4.5 µM										
CC(O)(C(=O)Nc1cccc2c1C(=O)c1ccsc1CS2(=O)=O)C(F)(F)F (centres unmarked) [Compound 1-5, 9,9-Dioxo-5-(3,3,3-trifluoro-2-hydroxy-2-methylpropanoylamino)-4,10-dihydrothieno[2,3-c][1]benzothiepin-4-one]	4 µM	8.7 µM										
CC(O)(C(=O)Nc1cccc2c1C(=O)c1ccoc1CS2(=O)=O)C(F)(F)F (centres unmarked) [Compound 1-7, 9,9-Dioxo-5-(3,3,3-trifluoro-2-hydroxy-2-methylpropanoylamino)-4,10-dihydrofuro[2,3-c][1]benzothiepin-4-one]	> 10 µM		116 ± 9%		138 ± 12%		156 ± 17%		155 ± 16%		155 ± 17%	
CC(O)(C(=O)Nc1ccc2c(c1)S(=O)(=O)Cc1occc1C2=O)C(F)(F)F (centres unmarked) [Compound 1-8, 9,9-Dioxo-7-(3,3,3-trifluoro-2-hydroxy-2-methylpropanoylamino)-4,10-dihydrofuro[2,3-c][1]benzothiepin-4-one]	7.5 µM											
CC(O)(C(=O)Nc1ccc2c(c1)C(=O)c1sccc1CS2(=O)=O)C(F)(F)F (centres unmarked) [Compound 1-9, 5,5-Dioxo-8-(3,3,3-trifluoro-2-hydroxy-2-methylpropanoylamino)-4,10-dihydrothieno[3,2-c][1]benzothiepin-10-one]	> 10 µM		129 ± 23%		123 ± 10%		143 ± 12%		135 ± 16%		130 ± 5%	
CC(O)(C(=O)Nc1cccc2c1C(=O)c1cccnc1CS2(=O)=O)C(F)(F)F (centres unmarked) [Compound 1-14, 10,10-Dioxo-6-(3,3,3-trifluoro-2-hydroxy-2-methylpropanoylamino)-5,11-dihydro[1]benzothiepino[3,4-b]pyridin-5-one]	> 10 µM											
CC(O)(C(=O)Nc1cccc2c1C(=O)c1cccc(F)c1CS2(=O)=O)C(F)(F)F (centres unmarked) [Compound 1-19, 5,5-Dioxo-7-fluoro-1-(3,3,3-trifluoro-2-hydroxy-2-methylpropanoylamino)-6,11-dihydrodibenzo[b,e]thiepin-11-one]	4.3 µM		114 ± 9%		139 ± 7%		136 ± 11%		145 ± 6%		167 ± 15%	
CC(O)(C(=O)Nc1ccc2c(c1)S(=O)(=O)Cc1ccc(F)cc1C2=O)C(F)(F)F (centres unmarked) [Compound 1-22, 5,5-Dioxo-9-fluoro-3-(3,3,3-trifluoro-2-hydroxy-2-methylpropanoylamino)-6,11-dihydrodibenzo[b,e]thiepin-11-one]	6.5 µM											
COc1ccc2c(c1)CS(=O)(=O)c1cccc(NC(=O)C(C)(O)C(F)(F)F)c1C2=O (centres unmarked) [Compound 1-24, 5,5-Dioxo-8-methoxy-1-(3,3,3-trifluoro-2-hydroxy-2-methylpropanoylamino)-6,11-dihydrodibenzo[b,e]thiepin-11-one]	> 10 µM		140 ± 11%		121 ± 17%		160 ± 19%		169 ± 25%		169 ± 25%	
COc1ccc(NC(=O)C(C)(O)C(F)(F)F)c2c1S(=O)(=O)Cc1ccsc1C2=O (centres unmarked) [Compound 1-28, 5,5-Dioxo-6-methoxy-9-(3,3,3-trifluoro-2-hydroxy-2-methylpropanoylamino)-4,10-dihydrothieno[3,2-c][1]benzothiepin-10-one]	> 10 µM		127 ± 10%		139 ± 7%		133 ± 6%		140 ± 3%		145 ± 3%	
Cc1ccc(NC(=O)C(C)(O)C(F)(F)F)c2c1S(=O)(=O)Cc1ccsc1C2=O (centres unmarked) [Compound 1-29, 5,5-Dioxo-6-methyl-9-(3,3,3-trifluoro-2-hydroxy-2-methylpropanoylamino)-4,10-dihydrothieno[3,2-c][1]benzothiepin-10-one]	2.4 µM											
CC(O)(C(=O)Nc1ccc(Cl)c2c1C(=O)c1sccc1CS2(=O)=O)C(F)(F)F (centres unmarked) [Compound 1-33, 6-Chloro-5,5-dioxo-9-(3,3,3-trifluoro-2-hydroxy-2-methylpropanoylamino)-4,10-dihydrothieno[3,2-c][1]benzothiepin-10-one]	0.7 µM		124 ± 15%		137 ± 15%		137 ± 4%		142 ± 10%		148 ± 21%	
CC(O)(C(=O)Nc1ccc(F)c2c1C(=O)c1sccc1CS2(=O)=O)C(F)(F)F (centres unmarked) [Compound 1-35, 5,5-Dioxo-6-fluoro-9-(3,3,3-trifluoro-2-hydroxy-2-methylpropanoylamino)-4,10-dihydrothieno[3,2-c][1]benzothiepin-10-one]	2.5 µM		115 ± 2%		133 ± 12%		131 ± 15%		152 ± 4%		148 ± 3%	
O=C1c2sccc2CS(=O)(=O)c2cccc(NC(=O)C3CCCO3)c21 (centres unmarked) [Compound 3-9, 5,5-Dioxo-9-(2-tetrahydrofuroylamino)-4,10-dihydrothieno[3,2-c][1]benzothiepin-10-one]	> 10 µM		122 ± 7%		128 ± 16%		129 ± 18%		150 ± 19%		160 ± 21%	
CC(C)(O)C(=O)Nc1cccc2c1C(=O)c1sccc1CS2(=O)=O [Compound 3-12, 5,5-Dioxo-9-(2-hydroxy-2-methylpropanoylamino)-4,10-dihydrothieno[3,2-c][1]benzothiepin-10-one]	> 10 µM		118 ± 18%		153 ± 20%		152 ± 17%		161 ± 26%		165 ± 19%	
CCC(C)(O)C(=O)Nc1cccc2c1C(=O)c1sccc1CS2(=O)=O (centres unmarked) [Compound 3-14, 5,5-Dioxo-9-(2-hydroxy-2-methylbutanoylamino)-4,10-dihydrothieno[3,2-c][1]benzothiepin-10-one]	> 10 µM											
CC1(C)Oc2ccc(C#N)cc2C(N2CCCC2=O)C1O (centres unmarked) [Cromakalim, cromakalim, reference compound]			124%		133%		142%		133%		133%	
